Assay [1] has as its system Normal Human Cardiac Fibroblasts (ventricle) (NHCF-V). Kind of assay: TGFβ1-induced expression of α-SMA protein in human cardiac fibroblasts (ELISA). The assay is classed as cell-based. Particulars: concentration of 1 μM; TGFβ1 3 ng/ml, 48 hours. As to the method:
NTZ (A) or TZ (B) were added to serum-deprived cardiac fibroblasts (NHCF) 1 hour before the activation with TGFβ1 (3 ng/ml). After 48 hours of incubation, the expression of α-SMA was measured by ELISA. The obtained values were transformed into percentage inhibition over TGFβ1 control. Data are presented as mean (triplicates)±standard deviation (SD). Statistical analyses were performed by one-way ANOVA followed by Bonferroni post-hoc tests, using Sigma Plot 11.0 software. [*: p<0.05; **: p<0.01; ***: p<0.001 (comparison versus TGFβ1 3 ng/mL group)].
The Normal Human Cardiac Fibroblasts (ventricle) (NHCF-V) (Lonza) were isolated from normal adult heart tissue. Cells were cultured in Fibroblast Basal Medium (FBM) (Lonza cat # CC-3131) that was supplemented with FGM™-3 BulletKit™ kit (Lonza cat # CC-4525). The complete medium contains 10% fetal bovine serum. For the activation experiments with TGFβ1, the NHCF-V were plated at a density of 6×10^3 cells per well in 96-well plates. The next day, cell-culture medium was removed, and cells were washed with PBS (Invitrogen cat #14190). NHCF were deprived for 24 hours in serum-free, insulin-free and rhFGF-B-free medium. […]
The level of α-SMA was measured using a Sandwich ELISA. […]

For assay [2], the system named is Normal Human Dermal Fibroblasts (NHDF). In words: ACTA2 transcripts in TGFβ1-induced normal human dermal fibroblasts (RT-qPCR). The assay is classed as cell-based. The settings on record: TGFβ1 10 ng/ml, 24 hours. As to the method:
Serum-deprived normal human dermal fibroblasts (NHDF) were preincubated for 1 hour with NTZ (A) or TZ (B) before the activation with TGFβ1 (10 ng/ml). After 24 hours of incubation, the expression of ACTA2 was measured by RT-qPCR. The expression values were then transformed as fold induction over TGFβ1 control. Data are presented as mean (triplicates)±SEM (Standard Error of Mean). Statistical analyses were performed by a student's t-test (for TGFβ-stimulated vs unstimulated conditions); [#: p<0.05; ## p<0.01; ### p<0.001] or by aone-way ANOVA followed by Bonferroni post-hoc tests (for compound-treated samples vs TGFβ1 control). [*: p<0.05; **: p<0.01; ***: p<0.001], using GraphPad Prism 7.04 software.
Normal Human Dermal Fibroblasts (NHDF) (Lonza) were cultured in Fibroblast Basal Medium (FBM) (Lonza cat # CC-3131) supplemented with FGM-2 SingleQuots™ Kit (Lonza cat # CC-3132) and 2% FBS. […]
Quantitative PCR was then carried out using the MyiQ Single-Color Real-Time PCR Detection System (Biorad). […]
For each gene, the standard curves were drawn by selecting the best points (at least three points) in order to have PCR reaction efficiency close to 100% and a correlation coefficient close to 1. Expression levels were determined using the standard curve equation for both the housekeeping gene and the target gene (taking into account the specific PCR efficiency of each target gene).

On to `O=C(Nc1ncc([N+](=O)[O-])s1)c1ccccc1O` [TZ, 2-hydroxy-N-(5-nitro-2-thiazolyl)benzamide], for which the “antifibrotic effects (α-SMA) in normal human cardiac fibroblasts” value in assay [1] was “significant antifibrotic effects”. Besides, the “antifibrotic effects (ACTA2 transcripts) in TGFβ-activated normal human dermal fibroblasts” value in assay [2] was “significant and dose-dependent antifibrotic effects”.

The values above are taken from patent US10905680B2, “Methods of treatment for cholestatic and fibrotic diseases” (Genfit, priority 2016, dated 2021).
